Values after ≈ are worked out from the molar mass of the structure shown. Where two headings read alike, the source gives them in different places.
Tests used:
S. aureus Smith = assay: Antibacterial activity (MIC), S. aureus; format: cell-based; conditions: Staphylococcus aureus
Description: (§1) As used herein, a minimum inhibitory concentration (MIC) for bacterial growth assay is the lowest level of a compound needed to cause an inhibition to bacterial growth in culture medium. In certain embodiments, the antibacterial activity of compounds herein, measured as MIC.
(§2) In certain embodiments, GSK3 inhibitors provided herein are substantially free of antibacterial activity or having very low antibacterial activity. The antibacterial activity can be measured by methods known in the art by estimating a minimum inhibitory concentration (MIC) for test compounds. A MIC is the lowest level of a compound needed to cause an inhibition to bacterial growth in a culture medium. […] (Clinical and Laboratory Standards Institute. Methods for Dilution Antimicrobial Susceptibility Tests for Bacteria That Grow Aerobically; Approved Standard-Sixth Edition: CLSI document […]. CLSI, Wayne, Pa. (2003))
(§3) Antibacterial activity for E. coli, ATCC8739 andS. aureus Smith expressed as MIC (μM) is provided as follows: […]

E. coli, ATCC8739 = assay: Antibacterial activity (MIC), E. coli; format: cell-based; conditions: Escherichia coli
Description: as §1, §2, §3

[1] = target: T1, recombinant full-length human GSK3β (Homo sapiens, UniProt P49841); assay: Luciferase-coupled cell-free GSK3β kinase assay; format: biochemical
T1 construct: recombinant full-length human GSK3β (Upstate); purchased Upstate
Method in brief: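 GSK3β, 10-25 ng, was incubated with compound for 1 h at 30° C in MOPS pH 7.0 buffer containing 62.5 μM phospho-glycogen synthase peptide-2 and 5 μM ATP. Remaining ATP was read by KinaseGlo luminescence, and IC50 was fitted from % inhibition relative to maximal inhibition.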

[2] = Table 2, S. aureus Smith, read-out: Antimicrobial MIC [μM] S. aureus
[3] = ATCC8739, Table 2, E. coli ATCC8739, read-out: Antimicrobial MIC [μM] E. Coli
[4] = Table 1, read-out: Antibacterial MIC (μM) S. aureus Smith
[5] = ATCC8739, Table 1, E. coli ATCC8739, read-out: Antibacterial MIC (μM) E.Coli

T1 sequence (P49841 whole entry): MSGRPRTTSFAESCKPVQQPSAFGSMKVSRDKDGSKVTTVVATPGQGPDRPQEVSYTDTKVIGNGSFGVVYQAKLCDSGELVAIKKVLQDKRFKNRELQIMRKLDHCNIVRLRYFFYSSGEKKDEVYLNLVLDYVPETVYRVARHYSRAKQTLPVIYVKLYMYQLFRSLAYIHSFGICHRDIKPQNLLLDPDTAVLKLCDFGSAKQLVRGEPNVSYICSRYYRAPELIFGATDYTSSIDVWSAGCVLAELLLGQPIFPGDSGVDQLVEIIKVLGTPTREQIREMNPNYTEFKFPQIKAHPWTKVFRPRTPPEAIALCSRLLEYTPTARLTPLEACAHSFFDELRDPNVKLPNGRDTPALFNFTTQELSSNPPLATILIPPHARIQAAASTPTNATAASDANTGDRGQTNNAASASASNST

Compound	MIC (S. aureus Smith; [2]) [µM]	MIC (E. coli, ATCC8739; [3]) [µM]	IC50 ([1]; Table 2) [µM]	MIC (S. aureus Smith; [4]) [µM]	MIC (E. coli, ATCC8739; [5]) [µM]	IC50 ([1]; Table 1) [µM]	MIC (S. aureus Smith; read-out: Antibacterial MIC (μM) S. aureus Smith) [µM]	MIC (E. coli, ATCC8739; ATCC8739, read-out: Antibacterial MIC (μM) E.Coli) [µM]
Nc1c(F)c(NC(=O)CCc2ccccc2)c(F)c2c1c(=O)c(C(=O)O)cn2C1CC1 [Example 126]	0.5 to 10 (≈ 0.214 to 4.27 µg/mL)	0.5 to 10 (≈ 0.214 to 4.27 µg/mL)	> 1					
Nc1c(F)c(NCCCc2ccccc2)c(F)c2c1c(=O)ccn2C1CC1 [compound 13]				10 to 50 (≈ 3.69 to 18.5 µg/mL)	10 to 50 (≈ 3.69 to 18.5 µg/mL)	0.1 to 0.5		
COc1c(NCCNc2ccccn2)c(F)c(NC(=O)C(F)(F)F)c2c(=O)c(C#N)cn(C3CC3)c12 [Example 141]	0.5 to 10 (≈ 0.252 to 5.04 µg/mL)	0.5 to 10 (≈ 0.252 to 5.04 µg/mL)	< 0.1					
Nc1ccc(CCNc2c(F)c(N)c3c(=O)ccn(C4CC4)c3c2F)cc1 [compound 12]				10 to 50 (≈ 3.7 to 18.5 µg/mL)	> 50	0.5 to 1		
C[C@H]1COc2c(NCCCN3CCCC3=O)c(F)c(N)c3c(=O)c(C(=O)O)cn1c23 [compound 23]	0.5 to 10 (≈ 0.209 to 4.18 µg/mL)	0.5 to 10 (≈ 0.209 to 4.18 µg/mL)	0.1 to 0.5					
CC(C)C[C@H]1COc2c(NCCCn3cnc4ccccc43)c(F)c(N)c3c(=O)c(C(=O)O)cn1c23 [compound 48]	10 to 50 (≈ 4.94 to 24.7 µg/mL)	10 to 50 (≈ 4.94 to 24.7 µg/mL)	< 0.1					
CC1(C)COc2c(NCCCc3ccccc3)c(F)c(N)c3c(=O)c(C(=O)O)cn1c23 [compound 38]	10 to 50 (≈ 4.25 to 21.3 µg/mL)	10 to 50 (≈ 4.25 to 21.3 µg/mL)	< 0.1					
Nc1c(F)c(NCCNc2ccccn2)cc2c1c(=O)c(C(=O)O)cn2C1CCOCC1 [Example 135]	10 to 50 (≈ 4.41 to 22.1 µg/mL)	10 to 50 (≈ 4.41 to 22.1 µg/mL)	< 0.1					
Nc1c(F)c(NCCCCc2ccccc2)c(F)c2c1c(=O)ccn2C1CC1 [compound 57]				10 to 50 (≈ 3.83 to 19.2 µg/mL)	10 to 50 (≈ 3.83 to 19.2 µg/mL)	0.5 to 1		
Nc1c(F)c(NCCCc2ccccc2)c(F)c2c1c(=O)c(C(=O)O)cn2CCCn1ccnc1 [compound 65]				10 to 50 (≈ 4.82 to 24.1 µg/mL)	10 to 50 (≈ 4.82 to 24.1 µg/mL)	0.1 to 0.5		
CCOC(=O)CCNc1c(F)c(N)c2c(=O)ccn(C3CC3)c2c1OC [Example 125]	> 50	> 50	0.1 to 0.5					
CC(C)(C)OC(=O)NCCNc1c(F)c(N)c2c(=O)ccn(C3CC3)c2c1F [compound 29]				> 50	> 50	0.1 to 0.5		
Nc1c(F)c(NCCc2ccc(F)cc2)c(F)c2c1c(=O)c(C(=O)O)cn2C1CC1 [compound 5]				< 0.5	0.5 to 10 (≈ 0.209 to 4.17 µg/mL)	0.1 to 0.5		
CC1COc2c(NCCCn3cnc4ccccc43)c(F)c(N)c3c(=O)c(C(=O)O)cn1c23 (stereo not drawn) [compound 6]	0.5 to 10 (≈ 0.226 to 4.51 µg/mL)	10 to 50 (≈ 4.51 to 22.6 µg/mL)	< 0.1					
CC1COc2c(NCCCc3ccccc3)c(F)c(N)c3c(=O)c(C(=O)O)cn1c23 (stereo not drawn) [compound 81]				0.5 to 10 (≈ 0.206 to 4.11 µg/mL)	10 to 50 (≈ 4.11 to 20.6 µg/mL)	< 0.1		
CC(C)OCCCNc1c(F)c(N)c2c(=O)c(C(=O)O)cn(C3CCCC3)c2c1F [compound 55]						< 0.1	10 to 50 (≈ 4.23 to 21.2 µg/mL)	10 to 50 (≈ 4.23 to 21.2 µg/mL)
Nc1c(F)c(NCCCc2ccccc2)c(F)c2c1c(=O)c(C(=O)O)cn2C1CCCC1 [compound 52]				10 to 50 (≈ 4.41 to 22.1 µg/mL)	10 to 50 (≈ 4.41 to 22.1 µg/mL)	< 0.1		
CC(C)[C@@H]1COc2c(NCCNc3ccccn3)c(F)c(N)c3c(=O)c(C(=O)O)cn1c23 [compound 62]	0.5 to 10 (≈ 0.221 to 4.41 µg/mL)	0.5 to 10 (≈ 0.221 to 4.41 µg/mL)	< 0.1					
CC1COc2c(NCCCN3CCCC3=O)c(F)c(N)c3c(=O)c(C(=O)O)cn1c23 (stereo not drawn) [compound 5]	0.5 to 10 (≈ 0.209 to 4.18 µg/mL)	> 50	< 0.1					
Nc1c(F)c(NCCc2ccc(O)cc2)c(F)c2c1c(=O)c(C(=O)O)cn2C1CC1 [compound 16]				< 0.5	0.5 to 10 (≈ 0.208 to 4.15 µg/mL)	0.5 to 1		
Nc1c(F)c(NCCNc2cccc3ccccc23)c(F)c2c1c(=O)c(C(=O)O)cn2C1CC1 [compound 43]				0.5 to 10 (≈ 0.232 to 4.64 µg/mL)	0.5 to 10 (≈ 0.232 to 4.64 µg/mL)	< 0.1		
